Test results taken from patent US20240376154A1, “BIS-INTERCALATING PEPTIDES, CONJUGATES AND METHODS OF USE” (ZYMEWORKS BC INC., priority 2023, published 2024).
Read-outs that look alike come from different tables or passages of the source. Where a SMILES comes first, the peptide text is derived from it. Bridges are numbered along the chain shown (N, C = ends). Roman numbers before positions name the chains, in order. [ ]: non-standard residue; d: D form. The star is where a group is joined. Quinaldoyl(3-OH) = O=C(c1nc2ccccc2cc1O)*; NMeV = CN[C@H](C(=O)O)C(C)C; Pip = O=C(O)[C@@H]1CCCCN1; dDap = NC[C@@H](N)C(=O)O; Sar = CNCC(=O)O

Legend:
[1] = system: tumour cells (at least 4 of a panel of ovarian, breast, lung, pancreatic, placenta, colon cell lines); assay: In vitro cytotoxicity (cell proliferation, CellTiter-Glo), average over tumour cell line panel; format: cell-based; settings: for pIC50 (average): average pIC50 on all cell lines tested, 5 nights incubation, CellTiter-Glo
Method in brief: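 Each cell line seeded at ~1000 cells/well and left to adhere overnight, then given a 10-point 1:3 compound titration for 5 nights at 37° C, 5% CO2. Viability read by CellTiter-Glo luminescence; IC50 per line, reported as pIC50 averaged across at least 4 lines.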

[2] = system: biotinylated hairpin DNA sequence 5'-GCATGCTTTTGCATGC; assay: DNA binding by surface plasmon resonance (SPR); settings: for KD (mM): SPR, 25° C., hairpin DNA
Description: Representative compounds prepared as described in Example 2 were assessed in two complementary DNA-binding assays. Increased melting temperature of herring sperm DNA was measured using differential scanning calorimetry (DSC) and binding kinetics were determined by surface plasmon resonance (SPR) using a short DNA hairpin sequence.
SPR experiments were conducted at 25° C. using a Biacore™ T200 instrument and SA-Biotin chip. PBST Buffer: Gibco PBS, pH 7.4 was modified with Tween®20 (0.01%) and DMSO (2%). Immobilization: a short biotinylated hairpin DNA sequence 5′-GCATGCTTTTGCATGC (5′ biotin) (SEQ ID NO: 1) that contains two known sandramycin binding segments (in bold) was heated to 90° C., cooled to RT then immobilized to 700 RU. Bis-intercalating peptides at concentrations of 5, 2.5, 1.25, 0.625, and 0.312 μM in PBST were flowed over the chip at 20 μL/min with an association time of 600 s followed by dissociation for 600 s. Reference cell values were subtracted and binding constants ka, kd, and KD were determined using Biacore™ T200 Evaluation Software, version 3.0.

[3] = Lipophilicity by experimental HPLC retention time; format: physicochemical; settings: HPLC retention time as measure of lipophilicity; C18, 10 to 90% CH3CN/H2O with 0.1% FA over 25 min
Method in brief: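 Reversed-phase HPLC with diode array detection on a Kinetex EVO C18 150×4.6, 2.6 μm column. Gradient 10 to 90% CH3CN/H2O with 0.1% FA over 25 min; retention time serves as the lipophilicity measure.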

herring sperm DNA = assay: DNA melting temperature by differential scanning calorimetry (DSC); format: binding; settings: DSC; herring sperm DNA; DNA melting temperature = 68° C.
Method in brief: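 Herring sperm DNA at 1 mg/mL (1.4 mM base pair) in BPE buffer, pH 7.0, equilibrated with test article (10 mM DMSO stock) for >3 h, insolubles removed by centrifugation. Scanned 25 to 110° C. at 1° C./min; melting temperature taken from the DSC melting curve.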

[4] = Stability in female mouse plasma; format: in vitro ADME; settings: 1 μM, 37° C., 24 h
Description: The stability of exemplary compounds of general Formula I in mouse plasma was evaluated as follows.
Compounds were incubated at 1 μM in duplicate in female mouse plasma, 250 μL final volume, at 37° C. for 24 h. Aliquots were sampled at 0, 15, 30, 60, 120, 240, 480 and 1440 min. Proteins were precipitated by addition of 5 volumes of cold methanol. After centrifugation 10000×g for 10 min, the residual concentration of compound in the supernatant was measured using an appropriate LC-MS/MS method. The measured concentrations were expressed as a function of time through a one-phase decay exponential regression calculated using GraphPad Prism software (GraphPad Software, Inc.) to generate the plasma half-life for each compound.

[5] = system: IGROV-1 (Ovarian Adenocarcinoma); assay: Cell proliferation assay, IGROV-1; format: cell-based; settings: 5 nights
Description: (§1) The ability of Compound 419 and Compound 424 to inhibit proliferation of tumour cells in vitro was measured by a cell proliferation assay using the following tumour cell lines: IGROV-1 (Ovarian Adenocarcinoma, NCI), JEG-3 (Placental Choriocarcinoma, AddexBio (C0030003)) and OVKATE (Ovarian Adenocarcinoma, Japanese Collection of Research Bioresources (JCRB) (JCRB1044)).
(§2) Cell lines were cultured as per vendor instructions prior to running the cell proliferation assay. Briefly, on the day prior to adding compound, cells (50 μL/well, 1000 cells/well) were added to sterile, tissue culture (TC)-treated, 384-well plates (ThermoFisher Scientific, Catalogue #164610) and incubated overnight at 37° C./5% CO2 to allow the cells to adhere to the plate surface. The next day, in a sterile, V-bottom, 96-well plate, compounds were titrated 1:3 in complete growth medium, creating a 10-point dose response titration with compounds at 3.5-times the desired final concentration. Control wells with no compound (growth medium only) were included for each compound titration in 96-well dilution plates. 20 uL from the 10-point dose response titration were added to the 384-well plate containing the seeded cells, in duplicate. Plates were incubated at 37° C./5% CO2 for 5 nights. After 5-night incubation, cell viability was quantified by the addition of 15 uL/well of CellTiter-Glo® (Promega, Catalogue #G7572) and incubation at room temperature for 30 minutes. After 30-minute incubation, luminescence was measured using a microplate luminometer (BioTek® Synergy™ H1 Microplate Reader). The resulting relative light units (RLU values) were converted to % cytotoxicity using the growth medium only control wells mentioned above:
(§3) Data was fit into 4-parameter logistic to curves using non-linear regression methods available with GraphPad Prism software (GraphPad Software, Inc.).

[6] = system: JEG-3 (Placental Choriocarcinoma); assay: Cell proliferation assay, JEG-3; format: cell-based; settings: 5 nights
Description: as §1, §2, §3

[7] = amide bond, 32-membered ring

For CC(C)[C@H]1C(=O)NC[C@@H](NC(=O)c2nc3ccccc3cc2O)C(=O)N2CCCC[C@H]2C(=O)NCC(=O)NCC(=O)N(C)[C@@H](C(C)C)C(=O)NC[C@@H](NC(=O)c2nc3ccccc3cc2O)C(=O)N2CCCC[C@H]2C(=O)NCC(=O)NCC(=O)N1C [Compound 137, N,N′-((7R,11S,19aS,26R,30S,38aS)-11,30-diisopropyl-12,31-dimethyl-6,10,13,16,19,25,29,32,35,38-decaoxohexatriacontahydro-2H,6H-dipyrido[1,2-a:1′,2′-q][1,4,7,10,13,17,20,23,26,29]decaazacyclodotriacontine-7,26-diyl)bis(3-hydroxyquinoline-2-carboxamide)] (I: {Quinaldoyl(3-OH)}-[dDap][Pip]GG[NMeV] / II: {Quinaldoyl(3-OH)}-[dDap][Pip]GG[NMeV]; amide I:1-II:C, I:C-II:1), the “activity in cell assays (in words)” value [1] was “inactive in cell assays”, the “pIC50 (average)” value [1] was “Inactive” and the “DNA binding via SPR (in words)” value [2] was “did not demonstrate measurable DNA binding”. For the same molecule, the “KD (mM)” value [2] was “none” and the “HPLC” value [3] was 15.1 min.

In the case of CC(C)[C@@H]1NC(=O)CN(C)C(=O)CNC(=O)[C@@H]2CCCCN2C(=O)[C@H](NC(=O)c2nc3ccccc3cc2O)CNC(=O)[C@H](C(C)C)NC(=O)CN(C)C(=O)CNC(=O)[C@@H]2CCCCN2C(=O)[C@H](NC(=O)c2nc3ccccc3cc2O)CNC1=O [Compound 152] (I: {Quinaldoyl(3-OH)}-[dDap][Pip]G[Sar]V / II: {Quinaldoyl(3-OH)}-[dDap][Pip]G[Sar]V; amide I:1-II:C, I:C-II:1), the “pIC50 (average)” value [1] is reported as 6.9, the “DNA binding via SPR (in words)” value [2] is reported as “near complete loss of binding” and the “HPLC” value [3] is reported as 14.6 min.

For CC(C)[C@H]1COC[C@@H](NC(=O)c2nc3ccccc3cc2O)C(=O)N2CCCC[C@H]2C(=O)NCC(=O)N(C)CC(=O)N(C)[C@@H](C(C)C)C(=O)NC[C@@H](NC(=O)c2nc3ccccc3cc2O)C(=O)N2CCCC[C@H]2C(=O)NCC(=O)N(C)CC(=O)N1C [Compound 178, N,N′-((7R,11S,19aS,26R,30S,38aS)-11,30-diisopropyl-12,15,31,34-tetramethyl-6,13,16,19,25,29,32,35,38-nonaoxotetratriacontahydro-2H,6H,10H-dipyrido[2,1-b1: 2′,1′-l][1]oxa[4,7,10,13,17,20,23,26,29]nonaazacyclodotriacontine-7,26-diyl)bis(3-hydroxyquinoline-2-carboxamide)], the “pIC50 (average)” value [1] was 8.1, the “DNA melt (° C.)” value (herring sperm DNA) was 92 °C and the “HPLC” value [3] was 18.4 min. The “plasma stability (in words)” value [4] was “stability over the course of the experiment”.

In the case of CC(C)[C@H]1C(=O)NCC(=O)N(C)CC(=O)N2CCCC[C@H]2C(=O)NC[C@@H](NC(=O)c2nc3ccccc3cc2O)C(=O)N(C)[C@@H](C(C)C)C(=O)NCC(=O)N(C)CC(=O)N2CCCC[C@H]2C(=O)NC[C@@H](NC(=O)c2nc3ccccc3cc2O)C(=O)N1C [Compound 414, N,N′-((13S,16R,19aS,32S,35R,38aS)-13,32-diisopropyl-8,14,27,33-tetramethyl-6,9,12,15,19,25,28,31,34,38-decaoxohexatriacontahydro-2H,6H-dipyrido[2,1-c: 2′,1′-s][1,4,7,10,13,17,20,23,26,29]decaazacyclodotriacontine-16,35-diyl)bis(3-hydroxyquinoline-2-carboxamide)], the “activity in cell assays (in words)” value [1] is reported as “inactive”, the “pIC50 (average)” value [1] is reported as “inactive” and the “DNA binding via SPR (in words)” value [2] is reported as “non-binding”. For the same molecule, the “KD (mM)” value [2] was “none” and the “HPLC” value [3] was 16.8 min.

Molecule CC(C)[C@H]1C(=O)NC[C@@H](NC(=O)c2nc3ccccc3cc2O)C(=O)N2CCCC[C@H]2C(=O)NCC(=O)N(C(C)C)CC(=O)N(C)[C@@H](C(C)C)C(=O)NC[C@@H](NC(=O)c2nc3ccccc3cc2O)C(=O)N2CCCC[C@H]2C(=O)NCC(=O)N(C(C)C)CC(=O)N1C [Compound 424, N,N′-((7R,11S,19aS,26R,30S,38aS)-11,15,30,34-tetraisopropyl-12,31-dimethyl-6,10,13,16,19,25,29,32,35,38-decaoxohexatriacontahydro-2H,6H-dipyrido[1,2-a:1′,2′-q][1,4,7,10,13,17,20,23,26,29]decaazacyclodotriacontine-7,26-diyl)bis(3-hydroxyquinoline-2-carboxamide)] has an EC50 [5] of 54 nM and an EC50 [6] of 55.7 nM.

For “(7R,11S,19aS,26R,38aS)-26-(((benzyloxy)carbonyl)amino)-11-isopropyl-12,15,30,30,31,34-hexamethyl-6,10,13,16,19,25,29,32,35,38-decaoxohexatriacontahydro-2H,6H-dipyrido[1,2-a:1′,2′-q][1,4,7,10,13,17,20,23,26,29]decaazacyclodotriacontin-7-aminium trifluoroacetate”, the ring closure, yield after HPLC ([7]; 2 steps) was 45%.

For “Benzyl N-[(3R,7S,20S,27R,31S,44S)-27-[(tert-butoxycarbonyl)amino]-15,39-dimethyl-2,6,13,16,19,26,30,37,40,43-decaoxo-1,5,12,15,18,25,29,36,39,42-decaazapentacyclo[42.4.0.0^7,12.0^20,25.0^31,36]octatetracontan-3-yl]carbamate”, the ring closure, yield after HPLC [7] was 40%.

In the case of “Benzyl tert-butyl ((7R,11S,19aS,26R,30S,38aS)-11,30-diisopropyl-15,34-dimethyl-6,10,13,16,19,25,29,32,35,38-decaoxohexatriacontahydro-2H,6H-dipyrido[1,2-a:1′,2′-q][1,4,7,10,13,17,20,23,26,29]decaazacyclodotriacontine-7,26-diyl)dicarbamate”, the ring closure, yield after HPLC [7] is reported as 20%.

With “Tert-butyl (4-nitrobenzyl) ((7R,10aS,22aS,29R,32aS,44aS)-18,40-dimethyl-6,16,19,22,28,32,38,41,44-nonaoxodotetracontahydro-6H-tetrapyrido[2,1-b1: 2′,1′-c: 2″,1″-1:2′″,1′″-s][1]oxa[4,7,10,13,17,20,23,26,29]nonaazacyclodotriacontine-7,29-diyl)dicarbamate” the ring closure, yield after HPLC [7] was 23%.
